“And” between values parts separate entries of the source, which are not always exact repeats. Equal entries are not always repeated.
System: collagen-induced arthritis
Test: Collagen-induced arthritis (CIA) model in rats: body weight, paw volume, clinical scores, clinical observations; on Average detailed clinical score, left hind limb: key of the grades not given here; on Average detailed clinical score, right hind limb: key of the grades not given here; on Detailed Clinical Scores, left forelimb: key of the grades not given here; on Detailed Clinical Scores, left hind limb: key of the grades not given here; on Detailed Clinical Scores, right forelimb: key of the grades not given here; on Detailed Clinical Scores, right hind limb: key of the grades not given here; on Detailed Clinical Scores, score: key of the grades not given here; on Mean overall clinical score ± SD: key of the grades not given here; on Overall clinical score: key of the grades not given here
Details: for Mean animal paw volume ± SD: group mean; for Detailed Clinical Scores, left forelimb / Detailed Clinical Scores, left hind limb / Detailed Clinical Scores, right forelimb / Detailed Clinical Scores, right hind limb / Detailed Clinical Scores, score: individual animals ID 1-8; for Overall clinical score: individual animals #1-8
[1] = CIA rats, daily P.O. (group 4), day 21
[2] = CIA rats, daily P.O. for 21 days

Compound: CNC(=O)c1cc(C(=O)NC2CC2)cn(Cc2ccccc2)c1=O [GSK620]
- Average animal paw volume percent change (CIA rats, Day 0, left hind paw (L)): 0.00%
- Animal paw volume Day 0 L (CIA rats, Day 0, left paw, individual animals): 1.27 mL (2×) and 1.32 mL (2×) and 1.37 mL (2×) and 1.34 mL and 1.35 mL
- Average animal paw volume percent change (CIA rats, Day 0, right hind paw (R)): 0.00%
- Animal paw volume Day 0 R (CIA rats, Day 0, right paw, individual animals): 1.27 mL and 1.31 mL and 1.28 mL and 1.37 mL (2×) and 1.33 mL (2×) and 1.34 mL
- Average animal paw volume percent change (CIA rats, Day 6, left hind paw (L)): 1.04%
- Animal paw volume Day 6 L (CIA rats, Day 6, left paw, individual animals): 1.27 mL and 1.34 mL (2×) and 1.37 mL and 1.36 mL and 1.38 mL and 1.32 mL and 1.35 mL
- Average animal paw volume percent change (CIA rats, Day 6, right hind paw (R)): 1.50%
- Animal paw volume Day 6 R (CIA rats, Day 6, right paw, individual animals): 1.27 mL and 1.35 mL and 1.38 mL and 1.37 mL and 1.39 mL and 1.33 mL (2×) and 1.34 mL
- Average animal paw volume percent change (CIA rats, Day 12, left hind paw (L)): 3.13%
- Animal paw volume Day 12 L (CIA rats, Day 12, left paw, individual animals): 1.33 mL (2×) and 1.41 mL and 1.37 mL and 1.42 mL and 1.36 mL and 1.35 mL and 1.38 mL
- Average animal paw volume percent change (CIA rats, Day 12, right hind paw (R)): 3.69%
- Animal paw volume Day 12 R (CIA rats, Day 12, right paw, individual animals): 1.31 mL and 1.35 mL and 1.42 mL and 1.39 mL (2×) and 1.38 mL (2×) and 1.37 mL
- Average animal paw volume percent change (CIA rats, Day 13, left hind paw (L)): 4.09%
- Animal paw volume Day 13 L (CIA rats, Day 13, left paw, individual animals): 1.34 mL (2×) and 1.43 mL (2×) and 1.36 mL and 1.37 mL and 1.38 mL and 1.40 mL
- Average animal paw volume percent change (CIA rats, Day 13, right hind paw (R)): 6.88%
- Animal paw volume Day 13 R (CIA rats, Day 13, right paw, individual animals): 1.40 mL and 1.35 mL and 1.42 mL (2×) and 1.57 mL and 1.37 mL and 1.41 mL and 1.39 mL
- Average animal paw volume percent change (CIA rats, Day 14, left hind paw (L)): 17.19%
- Animal paw volume Day 14 L (CIA rats, Day 14, left paw, individual animals): 1.55 mL and 1.78 mL and 1.44 mL and 1.36 mL and 1.43 mL and 1.40 mL and 1.73 mL (2×)
- Average animal paw volume percent change (CIA rats, Day 14, right hind paw (R)): 26.62%
- Animal paw volume Day 14 R (CIA rats, Day 14, right paw, individual animals): 1.74 mL and 1.49 mL and 1.44 mL and 2.11 mL and 1.43 mL and 1.38 mL and 1.99 mL and 1.83 mL
- Average animal paw volume percent change (CIA rats, Day 15, left hind paw (L)): 31.82%
- Animal paw volume Day 15 L (CIA rats, Day 15, left paw, individual animals): 2.04 mL and 2.03 mL and 1.39 mL and 1.49 mL and 1.52 mL and 1.60 mL and 2.14 mL and 1.75 mL
- Average animal paw volume percent change (CIA rats, Day 15, right hind paw (R)): 40.45%
- Animal paw volume Day 15 R (CIA rats, Day 15, right paw, individual animals): 2.05 mL and 2.08 mL and 1.38 mL and 2.42 mL and 1.47 mL and 1.56 mL and 2.13 mL and 1.79 mL
- Average animal paw volume percent change (CIA rats, Day 18, left hind paw (L)): 87.52%
- Animal paw volume Day 18 L (CIA rats, Day 18, left paw, individual animals): 2.72 mL and 2.54 mL and 2.39 mL and 2.87 mL and 2.29 mL and 2.05 mL and 2.66 mL and 2.34 mL
- Average animal paw volume percent change (CIA rats, Day 18, right hind paw (R)): 78.42%
- Animal paw volume Day 18 R (CIA rats, Day 18, right paw, individual animals): 2.62 mL and 2.45 mL and 2.41 mL and 3.15 mL and 1.46 mL and 2.04 mL and 2.38 mL and 2.34 mL
- Average animal paw volume percent change (CIA rats, Day 19, left hind paw (L)): 92.23%
- Animal paw volume Day 19 L (CIA rats, Day 19, left paw, individual animals): 2.71 mL and 2.54 mL and 2.32 mL (2×) and 3.06 mL and 2.61 mL and 2.19 mL and 2.63 mL
- Average animal paw volume percent change (CIA rats, Day 19, right hind paw (R)): 78.62%
- Animal paw volume Day 19 R (CIA rats, Day 19, right paw, individual animals): 2.59 mL and 2.46 mL and 2.33 mL (2×) and 3.15 mL and 1.46 mL and 2.20 mL and 2.36 mL
- Average animal paw volume percent change (CIA rats, Day 21, left hind paw (L)): 91.34%
- Animal paw volume Day 21 L (CIA rats, Day 21, left paw, individual animals): 2.71 mL and 2.51 mL and 2.34 mL and 3.04 mL and 2.62 mL and 2.21 mL and 2.54 mL and 2.32 mL
- Average animal paw volume percent change (CIA rats, Day 21, right hind paw (R)): 78.28%
- Animal paw volume Day 21 R (CIA rats, Day 21, right paw, individual animals): 2.63 mL and 2.44 mL and 2.21 mL and 3.08 mL and 1.61 mL and 2.18 mL and 2.37 mL and 2.33 mL
- animals with a clinical score of at least 2 in one or more hind limbs (CIA rats, daily P.O. (group 4), day 14): 5/8
- animals with clinical scores of 3 or greater in one or more hind limbs (CIA rats, daily P.O. (group 4), day 18): all animals
- animals with a clinical score of 4 in each hind limb [1]: 3/8
- animals with a score of 4 in at least one hind limb [1]: 5/8
- day on which clinical scores started to increase [2]: 14 days
- effect on hind paw volume [2]: less effective at preventing an increase in paw volume over the course of the study
- average overall clinical score at plateau (CIA rats, daily P.O. for 21 days, around day 18): 8
- animals showing signs of disease (CIA rats, daily P.O., day 12): No animals
- animals exhibiting disease (CIA rats, daily P.O., day 13): 1/8
- animals exhibiting disease (CIA rats, daily P.O., day 14): 5/8
- animals exhibiting disease (CIA rats, daily P.O., day 15): 7/8
- animals exhibiting disease (CIA rats, daily P.O., day 18): all animals
- Mean animal paw volume ± SD (Day 0, L paw): 1.32 mL
- Animal paw volume percent change (Day 0, L paw, individual animals): 0.00%
- Mean animal paw volume ± SD (Day 0, R paw): 1.32 mL
- Animal paw volume percent change (Day 0, R paw, individual animals): 0.00%
- Average detailed clinical score, left forelimb (Day 0, CIA rats): 0.00
- Average detailed clinical score, left hind limb (Day 0, CIA rats): 0.00
- Average detailed clinical score, right forelimb (Day 0, CIA rats): 0.00
- Average detailed clinical score, right hind limb (Day 0, CIA rats): 0.00
- Average detailed clinical score, score (Day 0, CIA rats): 0.00
- Mean overall clinical score ± SD (Day 0, CIA rats): 0 ± 0
- Detailed Clinical Scores, left forelimb (Day 0, CIA rats): 0
- Detailed Clinical Scores, left hind limb (Day 0, CIA rats): 0
- Detailed Clinical Scores, right forelimb (Day 0, CIA rats): 0
- Detailed Clinical Scores, right hind limb (Day 0, CIA rats): 0
- Detailed Clinical Scores, score (Day 0, CIA rats): 0
- Overall clinical score (Day 0, CIA rats): 0
- Mean animal paw volume ± SD (Day 6, L paw): 1.34 mL
- Animal paw volume percent change (Day 6, L paw, individual animals): −0.39% and 1.52% and 7.91% and −0.73% and 0.36% and 0.00% (2×) and −0.37%
- Mean animal paw volume ± SD (Day 6, R paw): 1.34 mL
- Animal paw volume percent change (Day 6, R paw, individual animals): −0.39% and 3.07% and 7.84% and 0.00% (4×) and 1.47%
- Average detailed clinical score, left forelimb (Day 6, CIA rats): 0.00
- Average detailed clinical score, left hind limb (Day 6, CIA rats): 0.00
- Average detailed clinical score, right forelimb (Day 6, CIA rats): 0.00
- Average detailed clinical score, right hind limb (Day 6, CIA rats): 0.00
- Average detailed clinical score, score (Day 6, CIA rats): 0.00
- Mean overall clinical score ± SD (Day 6, CIA rats): 0 ± 0
- Detailed Clinical Scores, left forelimb (Day 6, CIA rats): 0
- Detailed Clinical Scores, left hind limb (Day 6, CIA rats): 0
- Detailed Clinical Scores, right forelimb (Day 6, CIA rats): 0
- Detailed Clinical Scores, right hind limb (Day 6, CIA rats): 0
- Detailed Clinical Scores, score (Day 6, CIA rats): 0
- Overall clinical score (Day 6, CIA rats): 0
- Mean animal paw volume ± SD (Day 12, L paw): 1.36 mL
- Animal paw volume percent change (Day 12, L paw, individual animals): 4.33% and 0.76% and 11.07% and 0.00% and 3.28% and 1.50% and 2.28% and 1.85%
- Mean animal paw volume ± SD (Day 12, R paw): 1.37 mL
- Animal paw volume percent change (Day 12, R paw, individual animals): 2.76% and 3.07% and 10.98% and 1.47% (2×) and 3.77% (2×) and 2.25%
- Average detailed clinical score, left forelimb (Day 12, CIA rats): 0.00
- Average detailed clinical score, left hind limb (Day 12, CIA rats): 0.00
- Average detailed clinical score, right forelimb (Day 12, CIA rats): 0.00
- Average detailed clinical score, right hind limb (Day 12, CIA rats): 0.00
- Average detailed clinical score, score (Day 12, CIA rats): 0.00
- Mean overall clinical score ± SD (Day 12, CIA rats): 0 ± 0
- Detailed Clinical Scores, left forelimb (Day 12, CIA rats): 0
- Detailed Clinical Scores, left hind limb (Day 12, CIA rats): 0
- Detailed Clinical Scores, right forelimb (Day 12, CIA rats): 0
- Detailed Clinical Scores, right hind limb (Day 12, CIA rats): 0
- Detailed Clinical Scores, score (Day 12, CIA rats): 0
- Overall clinical score (Day 12, CIA rats): 0

Reference: patent US20250263370A1 (Tay Therapeutics Limited, priority 2022, published 2025)
